Data: ChEMBL document CHEMBL3045011, “Synthesis and Herbicidal Activities of 2-(5-Isoxazolyloxy)-acetamide Derivatives” (J Pestic Sci, 1998)
Activity calls are given as the source filed them. No cut-off for these calls is given here.

Key:
Echinochloa crus-galli [1] = assay: Herbicidal activity against Echinochloa crus-galli (barnyard grass) assessed as seedling death under green house at 0.5 kg/ha at 25 degC measured after 4 weeks; type: functional, organism-based
Echinochloa crus-galli [2] = assay: Herbicidal activity against Echinochloa crus-galli (barnyard grass) assessed as seedling death under green house at 1 kg/ha at 25 degC measured after 4 weeks; type: functional, organism-based
Amaranthus viridis [3] = assay: Herbicidal activity against Amaranthus viridis assessed as seedling death under green house at 1 kg/ha at 25 degC measured after 4 weeks; type: functional, organism-based
Digitaria ciliaris [4] = assay: Herbicidal activity against Digitaria ciliaris assessed as seedling death under green house at 1 kg/ha at 25 degC measured after 4 weeks; type: functional, organism-based
Amaranthus viridis [5] = assay: Herbicidal activity against Amaranthus viridis assessed as seedling death under green house at 0.5 kg/ha at 25 degC measured after 4 weeks; type: functional, organism-based
Digitaria ciliaris [6] = assay: Herbicidal activity against Digitaria ciliaris assessed as seedling death under green house at 0.5 kg/ha at 25 degC measured after 4 weeks; type: functional, organism-based
Persicaria lapathifolia [7] = assay: Herbicidal activity against Persicaria lapathifolia assessed as seedling death under green house at 1 kg/ha at 25 degC measured after 4 weeks; type: functional, organism-based
Persicaria lapathifolia [8] = assay: Herbicidal activity against Persicaria lapathifolia assessed as seedling death under green house at 0.5 kg/ha at 25 degC measured after 4 weeks; type: functional, organism-based
Amaranthus viridis [9] = assay: Herbicidal activity against Amaranthus viridis assessed as seedling death under green house at 0.25 kg/ha at 25 degC measured after 4 weeks; type: functional, organism-based
Digitaria ciliaris [10] = assay: Herbicidal activity against Digitaria ciliaris assessed as seedling death under green house at 0.25 kg/ha at 25 degC measured after 4 weeks; type: functional, organism-based
Gossypium hirsutum [11] = assay: Toxicity in Gossypium hirsutum cv. Hakushuu (cotton) assessed as seedling death under green house at 0.25 kg/ha at 25 degC measured after 4 weeks by crop selectivity assay; type: organism-based; details: in vivo, 672 h
Echinochloa crus-galli [12] = assay: Herbicidal activity against Echinochloa crus-galli (barnyard grass) assessed as seedling death under green house at 0.25 kg/ha at 25 degC measured after 4 weeks; type: functional, organism-based
Echinochloa crus-galli [13] = assay: Herbicidal activity against Echinochloa crus-galli (barnyard grass) assessed as seedling death under green house at 4 kg/ha at 25 degC measured after 4 weeks; type: functional, organism-based
Amaranthus viridis [14] = assay: Herbicidal activity against Amaranthus viridis assessed as seedling death under green house at 4 kg/ha at 25 degC measured after 4 weeks; type: functional, organism-based
Digitaria ciliaris [15] = assay: Herbicidal activity against Digitaria ciliaris assessed as seedling death under green house at 4 kg/ha at 25 degC measured after 4 weeks; type: functional, organism-based
Persicaria lapathifolia [16] = assay: Herbicidal activity against Persicaria lapathifolia assessed as seedling death under green house at 4 kg/ha at 25 degC measured after 4 weeks; type: functional, organism-based
Gossypium hirsutum [17] = assay: Toxicity in Gossypium hirsutum cv. Hakushuu (cotton) assessed as seedling death under green house at 0.5 kg/ha at 25 degC measured after 4 weeks by crop selectivity assay; type: organism-based; details: in vivo, 672 h
Glycine max = assay: Toxicity in Glycine max cv. Tamahomare (soybean) assessed as seedling death under green house at 0.5 kg/ha at 25 degC measured after 4 weeks by crop selectivity assay; type: organism-based; details: in vivo, 672 h

CCc1cccc(N(C)C(=O)COc2onc(C(F)(F)F)c2C)c1
Activity (Echinochloa crus-galli [1]): Active | Activity (Echinochloa crus-galli [2]): Active | Activity (Amaranthus viridis [3]): Active | Activity (Digitaria ciliaris [4]): Active | Activity (Amaranthus viridis [5]): Active | Activity (Digitaria ciliaris [6]): Active

CCc1ccccc1N(C)C(=O)COc1onc(C(F)(F)F)c1C
Activity (Persicaria lapathifolia [7]): inactive | Activity (Echinochloa crus-galli [2]): Active | Activity (Digitaria ciliaris [4]): Active | Activity (Persicaria lapathifolia [8]): inactive | Activity (Digitaria ciliaris [6]): Active

Cc1c(C(F)(F)F)noc1OCC(=O)N(C)c1cccc([N+](=O)[O-])c1
Activity (Digitaria ciliaris [4]): Active | Activity (Amaranthus viridis [5]): inactive | Activity (Persicaria lapathifolia [8]): inactive

Cc1cccc(N(C)C(=O)COc2onc(C(F)(F)F)c2C)c1C
Activity (Echinochloa crus-galli [1]): Active | Activity (Echinochloa crus-galli [2]): Active | Activity (Digitaria ciliaris [4]): Active | Activity (Persicaria lapathifolia [8]): inactive | Activity (Digitaria ciliaris [6]): Active

Cc1c(C(F)(F)F)noc1OCC(=O)N(C)c1ccccc1Cl
Activity (Amaranthus viridis [9]): Active | Activity (Echinochloa crus-galli [1]): Active | Activity (Persicaria lapathifolia [7]): Active | Activity (Echinochloa crus-galli [2]): Active | Activity (Amaranthus viridis [3]): Active | Activity (Digitaria ciliaris [10]): Active | Activity (Digitaria ciliaris [4]): Active | Activity (Amaranthus viridis [5]): Active | Activity (Gossypium hirsutum [11]): Non-toxic | Activity (Digitaria ciliaris [6]): Active | Activity (Echinochloa crus-galli [12]): Active

Cc1c(C(F)(F)F)noc1OCC(=O)N(C)c1ccccc1I
Activity (Echinochloa crus-galli [1]): Active | Activity (Echinochloa crus-galli [2]): Active | Activity (Amaranthus viridis [3]): Active | Activity (Digitaria ciliaris [4]): Active | Activity (Amaranthus viridis [5]): Active | Activity (Persicaria lapathifolia [8]): inactive | Activity (Digitaria ciliaris [6]): Active

CCC(C)N(C)C(=O)COc1onc(C(F)(F)F)c1C (stereo unspecified)
Activity (Echinochloa crus-galli [1]): Active | Activity (Digitaria ciliaris [4]): Active | Activity (Digitaria ciliaris [6]): Active

Cc1c(C(F)(F)F)noc1OCC(=O)N(C)c1ccc(F)cc1
Activity (Echinochloa crus-galli [1]): Active | Activity (Echinochloa crus-galli [2]): Active | Activity (Digitaria ciliaris [4]): Active | Activity (Digitaria ciliaris [6]): Active

Cc1c(C(F)(F)F)noc1OCC(=O)N(C)CC(C)C
Activity (Echinochloa crus-galli [2]): Active | Activity (Digitaria ciliaris [4]): Active | Activity (Digitaria ciliaris [6]): Active

COc1ccccc1N(C)C(=O)COc1onc(C(F)(F)F)c1C
Activity (Echinochloa crus-galli [1]): Active | Activity (Echinochloa crus-galli [2]): Active | Activity (Digitaria ciliaris [4]): Active | Activity (Digitaria ciliaris [6]): Active

Cc1c(C(F)(F)F)noc1OCC(=O)N(c1ccccc1)C(C)C
Activity (Echinochloa crus-galli [1]): Active | Activity (Echinochloa crus-galli [2]): Active | Activity (Digitaria ciliaris [4]): Active | Activity (Digitaria ciliaris [6]): Active

Cc1c(C(F)(F)F)noc1OCC(=O)N(C)c1ccccc1-c1ccccc1
Activity (Echinochloa crus-galli [13]): inactive | Activity (Amaranthus viridis [14]): inactive | Activity (Digitaria ciliaris [15]): inactive | Activity (Persicaria lapathifolia [16]): inactive

CN(C(=O)COc1cc(C(C)(C)C)no1)c1ccccc1
Activity (Amaranthus viridis [14]): inactive | Activity (Digitaria ciliaris [15]): inactive | Activity (Persicaria lapathifolia [16]): inactive

CN(C(=O)COc1cc(-c2ccccc2)no1)c1ccccc1
Activity (Echinochloa crus-galli [13]): inactive | Activity (Amaranthus viridis [14]): inactive | Activity (Digitaria ciliaris [15]): inactive | Activity (Persicaria lapathifolia [16]): inactive

Cc1c(C(F)(F)F)noc1OCC(=O)N(C)c1c(F)cccc1F
Activity (Persicaria lapathifolia [7]): inactive | Activity (Echinochloa crus-galli [2]): Active | Activity (Persicaria lapathifolia [8]): inactive

CCCc1ccc(N(C)C(=O)COc2onc(C(F)(F)F)c2C)cc1
Activity (Echinochloa crus-galli [1]): Active | Activity (Persicaria lapathifolia [7]): inactive | Activity (Echinochloa crus-galli [2]): Active | Activity (Persicaria lapathifolia [8]): inactive

CCc1c(C(F)(F)F)noc1OCC(=O)N(C)c1ccccc1
Activity (Gossypium hirsutum [17]): Non-toxic | Activity (Echinochloa crus-galli [1]): Active | Activity (Echinochloa crus-galli [2]): Active | Activity (Amaranthus viridis [3]): Active | Activity (Digitaria ciliaris [4]): Active | Activity (Digitaria ciliaris [6]): Active | Activity (Glycine max): Non-toxic

COc1ccc(N(C)C(=O)COc2onc(C(F)(F)F)c2C)cc1
Activity (Echinochloa crus-galli [1]): Active | Activity (Echinochloa crus-galli [2]): Active | Activity (Amaranthus viridis [3]): Active | Activity (Digitaria ciliaris [4]): Active | Activity (Amaranthus viridis [5]): Active | Activity (Persicaria lapathifolia [8]): inactive | Activity (Digitaria ciliaris [6]): Active

CCc1noc(OCC(=O)N(C)c2ccccc2)c1-c1ccccc1
Activity (Persicaria lapathifolia [16]): inactive

Cc1ccc(N(C)C(=O)COc2onc(C(F)(F)F)c2C)cc1
Activity (Echinochloa crus-galli [1]): Active | Activity (Echinochloa crus-galli [2]): Active | Activity (Amaranthus viridis [3]): Active | Activity (Digitaria ciliaris [4]): Active | Activity (Digitaria ciliaris [6]): Active

Cc1c(C(F)(F)F)noc1OCC(=O)N(C)c1cccc(Br)c1
Activity (Echinochloa crus-galli [1]): Active | Activity (Echinochloa crus-galli [2]): Active | Activity (Digitaria ciliaris [4]): Active | Activity (Digitaria ciliaris [6]): Active

CCc1ccc(N(C)C(=O)COc2onc(C(F)(F)F)c2C)cc1
Activity (Echinochloa crus-galli [1]): Active | Activity (Persicaria lapathifolia [7]): inactive | Activity (Echinochloa crus-galli [2]): Active | Activity (Digitaria ciliaris [4]): Active | Activity (Persicaria lapathifolia [8]): inactive | Activity (Digitaria ciliaris [6]): Active

CN(C(=O)COc1onc(-c2ccccc2)c1Br)c1ccccc1
Activity (Amaranthus viridis [14]): inactive | Activity (Persicaria lapathifolia [16]): inactive

CCN(C(=O)COc1onc(C(F)(F)F)c1C)c1ccccc1
Activity (Echinochloa crus-galli [1]): Active | Activity (Echinochloa crus-galli [2]): Active | Activity (Digitaria ciliaris [4]): Active | Activity (Digitaria ciliaris [6]): Active

Cc1c(C(F)(F)F)noc1OCC(=O)N(C)c1ccccc1F
Activity (Echinochloa crus-galli [1]): Active | Activity (Echinochloa crus-galli [2]): Active | Activity (Amaranthus viridis [3]): Active | Activity (Digitaria ciliaris [4]): Active | Activity (Amaranthus viridis [5]): Active | Activity (Digitaria ciliaris [6]): Active

Cc1c(C(F)(F)F)noc1OCC(=O)N(C)c1c(Cl)cccc1Cl
Activity (Amaranthus viridis [14]): inactive | Activity (Persicaria lapathifolia [16]): inactive

Cc1c(C(F)(F)F)noc1OCC(=O)Nc1ccccc1
Activity (Echinochloa crus-galli [13]): inactive | Activity (Amaranthus viridis [14]): inactive | Activity (Digitaria ciliaris [15]): inactive | Activity (Persicaria lapathifolia [16]): inactive

Cc1c(C(F)(F)F)noc1OCC(=O)N(C)c1ccccc1C(C)C
Activity (Persicaria lapathifolia [7]): inactive | Activity (Echinochloa crus-galli [2]): Active | Activity (Amaranthus viridis [3]): inactive | Activity (Digitaria ciliaris [4]): Active | Activity (Amaranthus viridis [5]): inactive | Activity (Persicaria lapathifolia [8]): inactive

CCCN(C(=O)COc1onc(C(F)(F)F)c1C)c1ccccc1
Activity (Echinochloa crus-galli [1]): Active | Activity (Echinochloa crus-galli [2]): Active | Activity (Digitaria ciliaris [4]): Active

Cc1c(C(F)(F)F)noc1OCC(=O)N(C)c1ccc(Br)cc1
Activity (Persicaria lapathifolia [7]): inactive | Activity (Echinochloa crus-galli [2]): Active | Activity (Amaranthus viridis [3]): inactive | Activity (Digitaria ciliaris [4]): Active | Activity (Amaranthus viridis [5]): inactive | Activity (Persicaria lapathifolia [8]): inactive | Activity (Digitaria ciliaris [6]): Active

Cc1c(Cl)cccc1N(C)C(=O)COc1onc(C(F)(F)F)c1C
Activity (Echinochloa crus-galli [1]): Active | Activity (Echinochloa crus-galli [2]): Active | Activity (Digitaria ciliaris [4]): Active | Activity (Digitaria ciliaris [6]): Active

Cc1cccc(C)c1N(C)C(=O)COc1onc(C(F)(F)F)c1C
Activity (Echinochloa crus-galli [13]): inactive | Activity (Amaranthus viridis [14]): inactive | Activity (Digitaria ciliaris [15]): inactive | Activity (Persicaria lapathifolia [16]): inactive

Cc1c(C(F)(F)F)noc1OCC(=O)N(C)c1ccc([N+](=O)[O-])cc1
Activity (Amaranthus viridis [14]): inactive | Activity (Persicaria lapathifolia [16]): inactive

COc1cccc(N(C)C(=O)COc2onc(C(F)(F)F)c2C)c1
Activity (Echinochloa crus-galli [1]): Active | Activity (Echinochloa crus-galli [2]): Active | Activity (Amaranthus viridis [3]): Active | Activity (Digitaria ciliaris [4]): Active | Activity (Digitaria ciliaris [6]): Active

Cc1c(C(F)(F)F)noc1OCC(=O)N(C)C(C)(C)C
Activity (Echinochloa crus-galli [13]): inactive | Activity (Amaranthus viridis [14]): inactive | Activity (Digitaria ciliaris [15]): inactive | Activity (Persicaria lapathifolia [16]): inactive

CCCCCN(C(=O)COc1onc(C(F)(F)F)c1C)c1ccccc1
Activity (Amaranthus viridis [14]): inactive | Activity (Digitaria ciliaris [15]): inactive | Activity (Persicaria lapathifolia [16]): inactive

Cc1ccccc1N(C)C(=O)COc1onc(C(F)(F)F)c1C
Activity (Echinochloa crus-galli [1]): Active | Activity (Echinochloa crus-galli [2]): Active | Activity (Amaranthus viridis [3]): Active | Activity (Digitaria ciliaris [4]): Active | Activity (Amaranthus viridis [5]): Active | Activity (Digitaria ciliaris [6]): Active

Cc1ccc(C)c(N(C)C(=O)COc2onc(C(F)(F)F)c2C)c1
Activity (Echinochloa crus-galli [1]): Active | Activity (Persicaria lapathifolia [7]): inactive | Activity (Echinochloa crus-galli [2]): Active | Activity (Persicaria lapathifolia [8]): inactive

CCCCN(C)C(=O)COc1onc(C(F)(F)F)c1C
Activity (Persicaria lapathifolia [8]): inactive

Cc1c(C(F)(F)F)noc1OCC(=O)N(C)c1cccc(Cl)c1
Activity (Echinochloa crus-galli [1]): Active | Activity (Echinochloa crus-galli [2]): Active | Activity (Digitaria ciliaris [4]): Active | Activity (Digitaria ciliaris [6]): Active

Cc1cccc(N(C)C(=O)COc2onc(C(F)(F)F)c2C)c1
Activity (Echinochloa crus-galli [1]): Active | Activity (Echinochloa crus-galli [2]): Active | Activity (Amaranthus viridis [3]): Active | Activity (Digitaria ciliaris [4]): Active | Activity (Amaranthus viridis [5]): Active | Activity (Digitaria ciliaris [6]): Active

Cc1c(C(F)(F)F)noc1OCC(=O)N(C)c1ccc(Cl)cc1
Activity (Persicaria lapathifolia [7]): inactive | Activity (Echinochloa crus-galli [2]): Active | Activity (Amaranthus viridis [3]): inactive | Activity (Digitaria ciliaris [4]): Active | Activity (Amaranthus viridis [5]): inactive | Activity (Persicaria lapathifolia [8]): inactive
